Where a name gives a salt, the structure may show the parent alone. Some results are limits rather than exact numbers.

The text below walks through data of patent US6630469B2, “5-HT7 receptor antagonists” (Bristol-Myers Squibb Company, priority 2000, dated 2003).

Tested on in one data set: not given
Test: not given
Conditions: not given
`C[C@H](Nc1nc(N)nc(NCCOc2ccccc2)n1)c1ccccc1` (as salt: TFA) [Compound 41, N^2-[2-(Phenoxy)ethyl]-N^4-[(1S)-1-phenylethyl]-1,3,5-triazine-2,4,6-triamine] registered a melting point of 207 to 208 °C.

As to `C[C@H](Nc1nc(N)nc(NCCc2ccccn2)n1)c1ccc(F)cc1` (as salt: TFA) [Example 18, N^2-[(1S)-1-(4-Fluorophenyl)ethyl]-N^4-[2-(2-pyridinyl)ethyl]-1,3,5-triazine-2,4,6-triamine], the melting point was 161 °C.

For the next data set, the target named is T1, human 5-HT7 receptor (Homo sapiens, UniProt P34969).
T1 construct: expressed in transfected cells; host or cells: CHO cells
T1 sequence (P34969 whole entry): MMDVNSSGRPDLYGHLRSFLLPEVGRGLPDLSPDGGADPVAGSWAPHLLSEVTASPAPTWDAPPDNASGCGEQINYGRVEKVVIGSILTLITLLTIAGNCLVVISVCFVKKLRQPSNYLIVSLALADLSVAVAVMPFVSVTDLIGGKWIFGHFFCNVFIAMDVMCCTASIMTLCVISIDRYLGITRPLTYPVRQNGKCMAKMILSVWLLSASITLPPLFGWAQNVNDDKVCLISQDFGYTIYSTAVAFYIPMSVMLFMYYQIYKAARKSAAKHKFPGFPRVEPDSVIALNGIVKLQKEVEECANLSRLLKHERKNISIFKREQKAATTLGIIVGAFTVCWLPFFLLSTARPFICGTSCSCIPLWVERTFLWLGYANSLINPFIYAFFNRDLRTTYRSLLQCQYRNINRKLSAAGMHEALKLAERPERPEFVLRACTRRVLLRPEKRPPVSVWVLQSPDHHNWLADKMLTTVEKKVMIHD
Kind of data set: 5-HT7 Receptor Binding Assay. As to conditions: membranes of CHO cells expressing human 5-HT7 receptor; 1 nM 3H-5-carboxamidotryptamine; 25° C., 60 minutes. Summed up: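 Membranes from CHO cells expressing human 5-HT7, 30 ug protein per well, incubated 60 min at 25° C in 50 mM HEPES with 0.1–1000 nM test compound and 1 nM ^3H-5-carboxamidotryptamine. Non-specific binding with 10 uM serotonin. Filtration and scintillation counting; IC50 by non-linear regression.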
With `COc1cc(CNc2ccnc(NCCOc3ccccc3)n2)cc(OC)c1` [N^4-(3,5-Dimethoxyphenylmethyl)-N^2-(2-phenoxyethyl)pyrimidine-2,4-diamine], the IC50 lay in the range of 101 to 200 nM.

Turning to `Fc1ccc(CNc2ccnc(NCCOc3ccccc3)n2)cc1Cl` [N^4-(3-Chloro-4-fluorophenylmethyl)-N^2-(2-phenoxyethyl)pyrimidine-2,4-diamine], the IC50 was at most 50 nM.

`Fc1ccc(CNc2ccnc(NCCc3ccccc3)n2)cc1Cl` [N^4-(3-Chloro-4-fluorophenylmethyl)-N^2-(2-phenylethyl)pyrimidine-2,4-diamine] displayed an IC50 of at most 50 nM.

In turn, `Cc1ccc(CNc2ccnc(NCCOc3ccccc3)n2)cc1Cl` [N^4-(3-Chloro-4-methylphenylmethyl)-N^2-(2-phenoxyethyl)pyrimidine-2,4-diamine] registered an IC50 of at most 50 nM.

`Cc1ccc(CNc2ccnc(NCCc3ccccc3)n2)cc1Cl` [N^4-(3-Chloro-4-methylphenylmethyl)-N^2-(2-phenylethyl)pyrimidine-2,4-diamine] displayed an IC50 of 101 to 200 nM.

In turn, `Clc1cccc(CNc2ccnc(NCCOc3ccccc3)n2)c1` [N^4-(3-Chlorophenylmethyl)-N^2-(2-phenoxyethyl)pyrimidine-2,4-diamine] gave an IC50 of at most 50 nM.

In the case of `Clc1cccc(CNc2ccnc(NCCc3ccccc3)n2)c1` [N^4-(3-Chlorophenylmethyl)-N^2-(2-phenylethyl)pyrimidine-2,4-diamine], the IC50 lay in the range of 101 to 200 nM.

In turn, `Fc1cccc(CNc2ccnc(NCCOc3ccccc3)n2)c1` [N^4-(3-Fluorophenylmethyl)-N^2-(2-phenoxyethyl)pyrimidine-2,4-diamine] yielded an IC50 of 51 to 100 nM.

As for `Fc1cccc(CNc2ccnc(NCCc3ccccc3)n2)c1` [N^4-(3-Fluorophenylmethyl)-N^2-(2-phenylethyl)pyrimidine-2,4-diamine], the IC50 was at most 50 nM.

For the molecule `COc1cccc(CNc2ccnc(NCCc3ccccc3)n2)c1` [N^4-(3-Methoxyphenylmethyl)-N^2-(2-phenylethyl)pyrimidine-2,4-diamine], the IC50 is at most 50 nM.

In turn, `Cc1cccc(CNc2ccnc(NCCOc3ccccc3)n2)c1` [N^4-(3-Methylphenylmethyl)-N^2-(2-phenoxyethyl)pyrimidine-2,4-diamine] displayed an IC50 of at most 50 nM.

Regarding `Cc1cccc(CNc2ccnc(NCCc3ccccc3)n2)c1` [N^4-(3-Methylphenylmethyl)-N^2-(2-phenylethyl)pyrimidine-2,4-diamine], the IC50 was at most 50 nM.

For the molecule `c1ccc(OCCNc2nccc(NCc3cccc4c3OCO4)n2)cc1` [N^4-(4-Benzodioxolylmethyl)-N^2-(2-phenoxyethyl)pyrimidine-2,4-diamine], the IC50 was at most 50 nM.

With `c1ccc(CCNc2nccc(NCc3cccc4c3OCO4)n2)cc1` [N^4-(4-Benzodioxolylmethyl)-N^2-(2-phenylethyl)pyrimidine-2,4-diamine], the IC50 was at most 50 nM.

The molecule `Clc1ccc(CNc2ccnc(NCCOc3ccccc3)n2)cc1` [N^4-(4-Chlorophenylmethyl)-N^2-(2-phenoxyethyl)pyrimidine-2,4-diamine] gave an IC50 of at most 50 nM.

Turning to `Clc1ccc(CNc2ccnc(NCCc3ccccc3)n2)cc1` [N^4-(4-Chlorophenylmethyl)-N^2-(2-phenylethyl)pyrimidine-2,4-diamine], the IC50 was at most 50 nM.

The molecule `COc1ccc(CNc2ccnc(NCCc3ccccc3)n2)cc1` [N^4-(4-Methoxyphenylmethyl)-N^2-(2-phenylethyl)pyrimidine-2,4-diamine] gave an IC50 of at most 50 nM.

`CC(Nc1ccnc(NCCOc2ccccc2)n1)c1ccc(Cl)cc1` (stereo not shown) [N^4-[1-(4-Chlorophenyl)ethyl]-N^2-(2-phenoxyethyl)pyrimidine-2,4-diamine] had an IC50 of at most 50 nM.

`CC(Nc1ccnc(NCCc2ccccc2)n1)c1ccc(Cl)cc1` (stereo not shown) [N^4-[1-(4-Chlorophenyl)ethyl]-N^2-(2-phenylethyl)pyrimidine-2,4-diamine] displayed an IC50 of at most 50 nM.

With `CC(Nc1ccnc(NCCc2ccccc2)n1)c1ccc(F)cc1` (stereo not shown) [N^4-[1-(4-Fluorophenyl)ethyl]-N^2-(2-phenylethyl)pyrimidine-2,4-diamine], the IC50 was at most 50 nM.

With `C[C@H](Nc1cc(NCCc2ccc(N)cc2)ncn1)c1ccccc1` [N^4-[2-(4-Aminophenyl)ethyl]-N^6-[(1S)-1-phenylethyl]pyrimidine-4,6-diamine], the IC50 is 101 to 200 nM.

For `C[C@H](Nc1cc(NCCc2ccc(Br)cc2)ncn1)c1ccccc1` [N^4-[2-(4-Bromoophenyl)ethyl]-N^6-[(1S)-1-phenylethyl]pyrimidine-4,6-diamine], the IC50 lay in the range of 101 to 200 nM.

Molecule `CC(Nc1nccc(NCCOc2ccc(F)cc2)n1)c1ccccc1` (stereo not shown) [N^4-[2-(4-Fluorophenoxy)ethyl]-N^2-(1-phenylethyl)pyrimidine-2,4-diamine] had an IC50 of at most 50 nM.

As to `C[C@H](Nc1cc(NCCc2ccc(O)cc2)ncn1)c1ccccc1` [N^4-[2-(4-Hydroxyphenyl)ethyl]-N^6-[(1S)-1-phenylethyl]pyrimidine-4,6-diamine], the IC50 was at most 50 nM.

Take `Fc1ccc(C(F)(F)F)cc1CNc1ccnc(NCCOc2ccccc2)n1` [N^4-[2-Fluoro-5-(trifluoromethyl)phenylmethyl]-N^2-(2-phenoxyethyl)pyrimidine-2,4-diamine]: the IC50 was at most 50 nM.

Molecule `Fc1cc(CNc2ccnc(NCCOc3ccccc3)n2)cc(C(F)(F)F)c1` [N^4-[3-Fluoro-5-(trifluoromethyl)phenylmethyl]-N^2-(2-phenoxyethyl)pyrimidine-2,4-diamine] gave an IC50 of 101 to 200 nM.

For the molecule `CC(C)c1ccc(CNc2ccnc(NCCOc3ccccc3)n2)cc1` [N^4-[4-(1-Methylethyl)phenylmethyl]-N^2-(2-phenoxyethyl)pyrimidine-2,4-diamine], the IC50 is at most 50 nM.

Take `Fc1ccc(CNc2ccnc(NCCOc3ccccc3)n2)cc1C(F)(F)F` [N^4-[4-Fluoro-3-(trifluoromethyl)phenylmethyl]-N^2-(2-phenoxyethyl)pyrimidine-2,4-diamine]: the IC50 lay within 51 to 100 nM.

In the case of `Fc1ccc(CNc2ccnc(NCCc3ccccc3)n2)cc1C(F)(F)F` [N^4-[4-Fluoro-3-(trifluoromethyl)phenylmethyl]-N^2-(2-phenylethyl)pyrimidine-2,4-diamine], the IC50 is 101 to 200 nM.

With `Cc1ccc([C@@H](C)Nc2ccnc(NCCOc3ccccc3)n2)cc1` [N^4-[(1R)-1-(4-Methylphenyl)ethyl]-N^2-(2-phenoxyethyl)pyrimidine-2,4-diamine], the IC50 is 51 to 100 nM.

The molecule `Cc1ccc([C@H](C)Nc2ccnc(NCCOc3ccccc3)n2)cc1` [N^4-[(1S)-1-(4-Methylphenyl)ethyl]-N^2-(2-phenoxyethyl)pyrimidine-2,4-diamine] gave an IC50 of at most 50 nM.

Molecule `C[C@H](Nc1ccnc(NCCc2ccccc2)n1)c1ccccc1` [N^4-[(1S)-1-Phenylethyl]-N^2-(2-phenylethyl)pyrimidine-2,4-diamine] yielded an IC50 of at most 50 nM.

The test system of a further data set is rat pup isolation-induced ultrasonic vocalization. Kind of data set: rat pup isolation-induced ultrasonic vocalization test. It is filed as in vivo.
Conditions: not given
The text has this: The compounds of this invention are useful as antagonists or partial agonists for the treatment of CNS and ocular disorders. […] A compound of this invention has also been assessed in an in vivo model, the rat pup isolation-induced ultrasonic vocalization test. This animal model has proven to be a sensitive and reliable method for detecting anxiolytics and antidepressants across a broad spectrum of pharmacological classes such as benzodiazepines, serotonin reuptake inhibitors, serotonin agonists and NMDA antagonists (Gardner, C.; Drug Devel. Res. 1985, 5,185-193 and Winslow, J.; Insel, T.; Psychopharmacology 1991, 105, 513-520).
In the case of `Cc1ccc([C@H](C)Nc2nc(N)nc(NCCOc3ccccc3)n2)cc1` [N^2-[(1S)-1-(4-Methylphenyl)ethyl]-N^4-(2-phenoxyethyl)-1,3,5-triazine-2,4,6-triamine], the “amount of compound dosed which reduced the rat pup ultrasonic vocalization by 50% (ID50)” value is 23.8 mg/kg; the “locomotor activity at doses suppressing ultrasonic vocalization” value was “did not suppress locomotor activity”; the “supression of rat pup ultrasonic vocalization” value is “dose dependent and significant supression of rat pup ultrasonic vocalization”.

By melting point is commonly meant the temperature of the solid-liquid transition. By IC50 is commonly meant the midpoint of a concentration-inhibition curve. The low end stands for higher potency, the high end for lower potency.
